Consider two compounds from ChEMBL document CHEMBL4507268 (2021).

The term inhibition denotes the relative decrease from the control value, in per cent.

The target of assay [1] is Bone morphogenetic protein receptor type-1A (Homo sapiens) (UniProt P36894). Particulars: Compound concentration 1000.0 nM.
The target of assay [2] is Myosin light chain kinase family member 4 (Homo sapiens) (UniProt Q86YV6). Particulars: Compound concentration 1000.0 nM.
Assay [3] has as its system Tyrosine-protein kinase ABL1 (Homo sapiens), P00519 [H396P]. The settings on record: Compound concentration 1000.0 nM.
Assay [4] has as its target 5-hydroxytryptamine receptor 3A (Homo sapiens) (UniProt P46098). The settings on record: Compound concentration 10.0 uM.
Assay [5] has as its target Phosphatidylinositol 4-kinase beta (Homo sapiens) (UniProt Q9UBF8). Particulars: Compound concentration 1000.0 nM.
Assay [6] deals with Serine/threonine-protein kinase RIO2 (Homo sapiens) (UniProt Q9BVS4). Particulars: Compound concentration 1000.0 nM.
Sequence of Serine/threonine-protein kinase RIO2 (Homo sapiens) (Q9BVS4 whole entry, looked up): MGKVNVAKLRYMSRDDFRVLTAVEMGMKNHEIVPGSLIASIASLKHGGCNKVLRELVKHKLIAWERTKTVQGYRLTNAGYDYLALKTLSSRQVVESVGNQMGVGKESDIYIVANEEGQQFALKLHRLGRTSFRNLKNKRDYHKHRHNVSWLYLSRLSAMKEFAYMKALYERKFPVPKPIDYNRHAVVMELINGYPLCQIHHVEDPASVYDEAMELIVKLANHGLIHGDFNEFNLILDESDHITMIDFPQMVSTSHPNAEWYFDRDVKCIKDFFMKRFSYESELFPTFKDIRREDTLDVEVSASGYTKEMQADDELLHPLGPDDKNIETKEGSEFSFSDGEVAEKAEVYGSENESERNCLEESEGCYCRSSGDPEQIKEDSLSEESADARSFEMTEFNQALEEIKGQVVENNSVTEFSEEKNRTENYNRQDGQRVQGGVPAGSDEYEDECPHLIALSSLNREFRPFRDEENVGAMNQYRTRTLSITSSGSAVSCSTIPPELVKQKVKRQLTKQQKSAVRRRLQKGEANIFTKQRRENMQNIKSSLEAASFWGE
The target of assay [7] is Ephrin type-A receptor 5 (Homo sapiens) (UniProt P54756). The settings on record: Compound concentration 1000.0 nM.
For assay [8], the target named is T1, Cyclin-dependent kinase-like 2 (Homo sapiens) (UniProt Q92772).
T1 sequence (whole entry): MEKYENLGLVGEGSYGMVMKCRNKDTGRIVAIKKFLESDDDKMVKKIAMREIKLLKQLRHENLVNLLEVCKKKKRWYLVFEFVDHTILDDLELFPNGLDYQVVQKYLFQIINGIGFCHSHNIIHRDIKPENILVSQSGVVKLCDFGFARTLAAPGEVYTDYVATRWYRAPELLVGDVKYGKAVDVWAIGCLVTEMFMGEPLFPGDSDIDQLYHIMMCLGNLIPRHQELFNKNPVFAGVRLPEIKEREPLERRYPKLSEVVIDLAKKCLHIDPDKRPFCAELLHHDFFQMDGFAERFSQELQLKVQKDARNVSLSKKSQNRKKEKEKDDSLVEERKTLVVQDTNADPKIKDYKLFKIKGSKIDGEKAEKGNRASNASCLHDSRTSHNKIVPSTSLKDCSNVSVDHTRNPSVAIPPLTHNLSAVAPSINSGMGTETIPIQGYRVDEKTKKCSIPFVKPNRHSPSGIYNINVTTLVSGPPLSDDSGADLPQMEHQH
Particulars: Compound concentration 1000.0 nM.

For assay [9], the target named is Death-associated protein kinase 1 (Homo sapiens) (UniProt P53355). Particulars: Compound concentration 1000.0 nM.
Sequence of Death-associated protein kinase 1 (Homo sapiens) (P53355 whole entry, looked up): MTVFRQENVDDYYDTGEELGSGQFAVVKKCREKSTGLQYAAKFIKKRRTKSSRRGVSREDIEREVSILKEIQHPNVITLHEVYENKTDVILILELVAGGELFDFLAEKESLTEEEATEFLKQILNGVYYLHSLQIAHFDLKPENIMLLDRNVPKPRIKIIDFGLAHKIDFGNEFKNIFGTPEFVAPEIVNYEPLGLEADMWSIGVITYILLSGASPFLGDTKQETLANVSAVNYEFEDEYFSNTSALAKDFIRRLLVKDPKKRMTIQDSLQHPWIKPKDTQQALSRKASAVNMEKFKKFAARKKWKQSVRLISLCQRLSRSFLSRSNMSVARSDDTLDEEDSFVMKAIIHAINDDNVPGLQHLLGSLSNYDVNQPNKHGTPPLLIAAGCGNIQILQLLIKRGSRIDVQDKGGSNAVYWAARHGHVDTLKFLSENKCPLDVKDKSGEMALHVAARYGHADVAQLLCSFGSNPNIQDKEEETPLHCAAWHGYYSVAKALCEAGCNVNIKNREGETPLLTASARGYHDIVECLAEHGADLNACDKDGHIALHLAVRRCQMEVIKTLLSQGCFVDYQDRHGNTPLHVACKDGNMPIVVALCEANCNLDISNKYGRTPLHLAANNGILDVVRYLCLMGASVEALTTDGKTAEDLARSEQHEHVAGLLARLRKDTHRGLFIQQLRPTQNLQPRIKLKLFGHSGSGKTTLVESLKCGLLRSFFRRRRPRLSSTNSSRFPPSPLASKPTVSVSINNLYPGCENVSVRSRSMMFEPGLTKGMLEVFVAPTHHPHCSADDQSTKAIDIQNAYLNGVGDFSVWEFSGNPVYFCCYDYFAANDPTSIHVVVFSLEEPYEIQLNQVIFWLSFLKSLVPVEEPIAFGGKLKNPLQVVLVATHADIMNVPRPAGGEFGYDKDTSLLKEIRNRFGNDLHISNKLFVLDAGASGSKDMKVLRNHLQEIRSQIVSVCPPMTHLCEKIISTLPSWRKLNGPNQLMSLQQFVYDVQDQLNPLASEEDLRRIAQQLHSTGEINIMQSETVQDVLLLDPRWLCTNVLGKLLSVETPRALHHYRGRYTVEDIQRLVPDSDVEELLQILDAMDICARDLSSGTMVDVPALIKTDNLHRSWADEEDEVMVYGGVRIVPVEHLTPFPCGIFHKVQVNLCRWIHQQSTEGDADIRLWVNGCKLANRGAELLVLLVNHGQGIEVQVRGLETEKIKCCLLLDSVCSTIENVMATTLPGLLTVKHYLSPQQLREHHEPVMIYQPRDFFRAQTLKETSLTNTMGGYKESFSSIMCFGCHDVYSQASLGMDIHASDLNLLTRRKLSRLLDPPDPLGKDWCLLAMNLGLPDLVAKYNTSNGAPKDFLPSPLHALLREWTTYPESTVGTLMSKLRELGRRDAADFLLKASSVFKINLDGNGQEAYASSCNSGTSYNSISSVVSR
Assay [10] has as its system Epidermal growth factor receptor (Homo sapiens), P00533 [UNDEFINED MUTATION]. Particulars: Compound concentration 1000.0 nM.
Assay [11] concerns eIF-2-alpha kinase GCN2 (Homo sapiens), Q9P2K8 [S808G]. The settings on record: Compound concentration 1000.0 nM.
Sequence of eIF-2-alpha kinase GCN2 (Homo sapiens), Q9P2K8 [S808G] (Q9P2K8 whole entry S808G): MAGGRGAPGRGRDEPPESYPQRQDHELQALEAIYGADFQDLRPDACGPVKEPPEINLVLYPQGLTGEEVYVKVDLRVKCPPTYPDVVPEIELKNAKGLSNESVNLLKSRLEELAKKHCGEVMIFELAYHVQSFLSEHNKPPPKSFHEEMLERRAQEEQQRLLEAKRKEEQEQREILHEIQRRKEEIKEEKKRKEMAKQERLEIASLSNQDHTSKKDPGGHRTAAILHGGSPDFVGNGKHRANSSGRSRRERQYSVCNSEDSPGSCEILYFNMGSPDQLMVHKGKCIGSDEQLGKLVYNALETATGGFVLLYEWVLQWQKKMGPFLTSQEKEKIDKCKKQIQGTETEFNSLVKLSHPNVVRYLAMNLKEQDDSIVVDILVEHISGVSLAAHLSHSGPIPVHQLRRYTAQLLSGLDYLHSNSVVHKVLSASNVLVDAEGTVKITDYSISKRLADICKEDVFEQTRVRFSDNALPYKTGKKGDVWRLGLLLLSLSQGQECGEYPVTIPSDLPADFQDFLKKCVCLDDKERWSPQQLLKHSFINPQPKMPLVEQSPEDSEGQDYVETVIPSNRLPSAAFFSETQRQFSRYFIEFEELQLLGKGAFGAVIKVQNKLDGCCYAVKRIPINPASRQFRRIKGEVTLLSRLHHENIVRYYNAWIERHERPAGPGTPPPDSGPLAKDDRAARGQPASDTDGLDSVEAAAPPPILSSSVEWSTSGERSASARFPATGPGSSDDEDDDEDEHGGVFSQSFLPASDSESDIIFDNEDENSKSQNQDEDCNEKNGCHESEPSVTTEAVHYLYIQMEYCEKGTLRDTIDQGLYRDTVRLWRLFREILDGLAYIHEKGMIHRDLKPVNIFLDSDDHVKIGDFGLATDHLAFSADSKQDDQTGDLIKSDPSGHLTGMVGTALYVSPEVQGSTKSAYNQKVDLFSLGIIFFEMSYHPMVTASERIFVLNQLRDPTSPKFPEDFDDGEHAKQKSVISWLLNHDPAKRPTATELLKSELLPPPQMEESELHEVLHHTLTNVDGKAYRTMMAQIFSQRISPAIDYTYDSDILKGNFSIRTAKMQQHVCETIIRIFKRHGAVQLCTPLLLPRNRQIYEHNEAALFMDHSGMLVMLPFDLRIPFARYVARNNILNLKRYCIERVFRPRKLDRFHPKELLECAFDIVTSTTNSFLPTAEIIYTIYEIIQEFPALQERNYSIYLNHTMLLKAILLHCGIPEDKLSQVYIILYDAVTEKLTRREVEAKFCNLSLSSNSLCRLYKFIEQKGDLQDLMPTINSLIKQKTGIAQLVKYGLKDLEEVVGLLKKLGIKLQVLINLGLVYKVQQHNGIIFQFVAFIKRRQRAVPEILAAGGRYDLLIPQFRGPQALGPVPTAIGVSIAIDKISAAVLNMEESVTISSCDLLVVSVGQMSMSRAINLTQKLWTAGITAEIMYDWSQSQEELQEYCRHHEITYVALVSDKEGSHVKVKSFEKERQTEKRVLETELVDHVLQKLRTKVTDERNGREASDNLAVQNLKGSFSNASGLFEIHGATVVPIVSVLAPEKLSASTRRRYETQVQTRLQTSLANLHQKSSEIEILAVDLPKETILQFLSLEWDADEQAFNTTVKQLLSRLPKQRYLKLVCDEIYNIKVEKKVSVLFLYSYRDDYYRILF
Assay [12] concerns the target SRSF protein kinase 1 (Homo sapiens) (UniProt Q96SB4). The settings on record: Compound concentration 1000.0 nM.
Assay [13] addresses T2, Rhodopsin kinase GRK7 (Homo sapiens) (UniProt Q8WTQ7).
T2 sequence (whole entry): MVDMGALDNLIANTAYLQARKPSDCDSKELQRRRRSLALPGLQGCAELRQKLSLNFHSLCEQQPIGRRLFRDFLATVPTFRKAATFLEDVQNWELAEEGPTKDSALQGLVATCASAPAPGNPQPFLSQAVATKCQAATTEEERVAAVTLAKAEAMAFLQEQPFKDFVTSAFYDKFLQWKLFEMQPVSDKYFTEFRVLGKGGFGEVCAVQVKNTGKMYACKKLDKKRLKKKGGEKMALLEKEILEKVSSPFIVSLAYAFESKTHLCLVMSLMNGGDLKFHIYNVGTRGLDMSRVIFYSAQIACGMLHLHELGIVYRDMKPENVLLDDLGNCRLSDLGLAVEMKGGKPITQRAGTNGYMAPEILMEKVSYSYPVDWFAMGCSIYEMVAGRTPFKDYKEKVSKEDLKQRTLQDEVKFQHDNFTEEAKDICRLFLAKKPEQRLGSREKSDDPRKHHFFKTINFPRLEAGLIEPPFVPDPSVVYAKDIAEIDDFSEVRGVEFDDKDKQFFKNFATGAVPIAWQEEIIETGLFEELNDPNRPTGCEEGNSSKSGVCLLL
The settings on record: Compound concentration 1000.0 nM.

Assay [14] has as its target Cyclin-dependent kinase 2 (Homo sapiens) (UniProt P24941). Particulars: Compound concentration 1000.0 nM.
For assay [15], the target named is Sigma intracellular receptor 2 (Homo sapiens, UniProt Q5BJF2). The settings on record: Compound concentration 10.0 uM.
Sequence of Sigma intracellular receptor 2 (Q5BJF2 whole entry): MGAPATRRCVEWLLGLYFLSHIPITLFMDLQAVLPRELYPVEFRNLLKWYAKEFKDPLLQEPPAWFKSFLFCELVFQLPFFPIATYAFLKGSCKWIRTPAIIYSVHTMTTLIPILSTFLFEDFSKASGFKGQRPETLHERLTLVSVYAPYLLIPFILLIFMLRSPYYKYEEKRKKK
Assay [16] addresses Membrane-associated tyrosine- and threonine-specific cdc2-inhibitory kinase (Homo sapiens) (UniProt Q99640). The settings on record: Compound concentration 1000.0 nM.
For assay [17], the target named is Cyclin-dependent kinase 5 (Homo sapiens) (UniProt Q00535). The settings on record: Compound concentration 1000.0 nM.
Sequence of Cyclin-dependent kinase 5 (Homo sapiens) (Q00535 whole entry, looked up): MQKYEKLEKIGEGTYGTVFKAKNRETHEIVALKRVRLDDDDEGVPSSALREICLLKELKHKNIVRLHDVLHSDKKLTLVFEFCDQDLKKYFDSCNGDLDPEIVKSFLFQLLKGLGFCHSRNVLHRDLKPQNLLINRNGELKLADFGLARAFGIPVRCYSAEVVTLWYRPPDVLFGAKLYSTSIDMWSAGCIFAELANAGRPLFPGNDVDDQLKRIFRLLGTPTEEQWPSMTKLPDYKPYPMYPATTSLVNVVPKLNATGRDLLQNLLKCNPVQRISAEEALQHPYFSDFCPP
The target of assay [18] is Serine/threonine-protein kinase 26 (Homo sapiens) (UniProt Q9P289). The settings on record: Compound concentration 1000.0 nM.
Sequence of Serine/threonine-protein kinase 26 (Homo sapiens) (Q9P289 2-416 limits assumed): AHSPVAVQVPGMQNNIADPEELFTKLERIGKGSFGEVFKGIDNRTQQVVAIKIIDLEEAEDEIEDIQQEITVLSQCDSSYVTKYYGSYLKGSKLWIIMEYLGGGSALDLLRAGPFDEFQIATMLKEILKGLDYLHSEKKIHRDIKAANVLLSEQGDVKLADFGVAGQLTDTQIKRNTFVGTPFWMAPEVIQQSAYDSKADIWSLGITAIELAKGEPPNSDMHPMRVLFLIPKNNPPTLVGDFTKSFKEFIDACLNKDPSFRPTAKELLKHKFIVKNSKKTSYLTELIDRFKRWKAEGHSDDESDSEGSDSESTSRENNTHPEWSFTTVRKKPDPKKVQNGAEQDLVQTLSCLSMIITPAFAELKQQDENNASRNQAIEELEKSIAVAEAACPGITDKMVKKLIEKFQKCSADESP
Assay [19] deals with Serine/threonine-protein kinase ULK1 (Homo sapiens) (UniProt O75385). Particulars: Compound concentration 1000.0 nM.
For assay [20], the target named is 5-hydroxytryptamine receptor 1A (Homo sapiens) (UniProt P08908). The settings on record: Compound concentration 10.0 uM.
Assay [21] concerns the target T3, Mitogen-activated protein kinase kinase kinase 2 (Homo sapiens) (UniProt Q9Y2U5).
T3 sequence (whole entry): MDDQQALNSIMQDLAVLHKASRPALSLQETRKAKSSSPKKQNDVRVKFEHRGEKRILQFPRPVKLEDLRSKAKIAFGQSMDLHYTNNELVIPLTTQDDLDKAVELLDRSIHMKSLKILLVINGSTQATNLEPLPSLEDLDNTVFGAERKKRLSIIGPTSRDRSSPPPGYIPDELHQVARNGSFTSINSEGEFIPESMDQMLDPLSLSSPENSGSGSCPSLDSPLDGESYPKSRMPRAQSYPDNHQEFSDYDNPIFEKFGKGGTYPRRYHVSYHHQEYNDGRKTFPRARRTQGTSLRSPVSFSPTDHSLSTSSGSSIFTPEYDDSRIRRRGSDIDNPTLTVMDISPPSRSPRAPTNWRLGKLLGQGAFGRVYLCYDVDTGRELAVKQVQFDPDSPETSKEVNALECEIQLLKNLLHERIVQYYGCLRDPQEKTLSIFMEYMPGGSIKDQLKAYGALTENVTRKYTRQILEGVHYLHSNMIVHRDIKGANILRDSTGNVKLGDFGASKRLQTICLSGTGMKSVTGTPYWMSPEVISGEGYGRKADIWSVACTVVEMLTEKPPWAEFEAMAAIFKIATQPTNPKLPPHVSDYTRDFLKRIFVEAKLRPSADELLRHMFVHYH
The settings on record: Compound concentration 1000.0 nM.

Sequence of Membrane-associated tyrosine- and threonine-specific cdc2-inhibitory kinase (Homo sapiens) (Q99640 whole entry): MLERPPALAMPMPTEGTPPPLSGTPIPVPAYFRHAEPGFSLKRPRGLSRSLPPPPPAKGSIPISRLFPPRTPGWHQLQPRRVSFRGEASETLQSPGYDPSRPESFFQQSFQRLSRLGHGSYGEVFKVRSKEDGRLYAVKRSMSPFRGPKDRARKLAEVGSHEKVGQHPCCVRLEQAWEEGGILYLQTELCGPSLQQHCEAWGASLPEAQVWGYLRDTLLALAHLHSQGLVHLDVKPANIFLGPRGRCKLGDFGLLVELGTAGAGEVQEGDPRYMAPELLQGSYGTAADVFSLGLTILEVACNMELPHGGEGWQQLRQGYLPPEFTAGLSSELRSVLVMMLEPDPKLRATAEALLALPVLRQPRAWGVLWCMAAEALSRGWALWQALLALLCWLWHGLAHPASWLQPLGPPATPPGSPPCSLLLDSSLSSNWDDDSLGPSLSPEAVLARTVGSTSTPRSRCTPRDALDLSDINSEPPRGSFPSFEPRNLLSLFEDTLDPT

Take `Cc1nc(C2CCN(C(=O)c3ccc(OC(F)(F)F)cc3N)CC2)c2ncc(N3CCN(C)CC3)cc2n1` [BAY-693]: the residual activity is 80% in [1]; 100% in assay [2]; 89% in assay [3]; 84% in assay [5]; 100% in assay [6]; 99% in assay [7]. The residual activity was 100% in assay [8]; 95% in assay [9]; 70% in [10]; 90% in [11]; 79% in [12]; 81% in assay [13]. Further, the residual activity in [14] is 87%; in [16], 100%; in [17] it was 88%; in assay [18] it was 100%; in [19], 49%; in [21] it was 100%. Moreover, the results for the inhibition in assay [4], in assay [15] and in assay [20] were 6.25%, 51.4% and -3.88%, respectively.
Take `CN1CCN(c2cnc3c(C4CCN(C(=O)c5ccc(OC(F)(F)F)cc5N)CC4)ncnc3c2)CC1` [BAY-885]: the residual activity in assay [1] is 79%; in [2], 100%; in assay [3], 100%; in [5], 96%; in assay [6] it was 100%; in [7] it was 91%. The residual activity was 100% in [8]; 100% in [9]; 83% in [10]; 99% in assay [11]; 88% in [12]; 87% in assay [13]. Besides, the residual activity is 100% in assay [14]; 100% in assay [16]; 87% in [17]; 98% in assay [18]; 100% in assay [19]; 100% in [21]. Also, the inhibition in [4] is 5.22%; in [15], 30.9%; in [20], 7.38%.
